In patent publication US20230219900A1, “Sodium 2-[(4S)-8-fluoro-2-[4-(3-methoxyphenyl)piperazin-1-yl]-3-[2-methoxy-5-(trifluoromethyl)phenyl]-4H-quinazolin-4-yl]acetate monohydrate, its preparation and use” (AIC246 AG & CO. KG, priority 2020, published 2023):

Experiments:
Format in all cases: physicochemical
[1] = Thermal stability / decomposition by thermogravimetric analysis (TGA)
Description: Thermogravimetric analysis (TGA): Thermogravimetric analyses were recorded in a Mettler Toledo TGA/SDTA851 with a balance MT1 type. Approximately 3-4 mg of sample were weighed (using a MX5 Mettler Toledo microbalance) into 40 μL aluminium crucibles with a pinhole lid and heated under nitrogen (10 mL/min) at 10° C./min from 30° C. to 300° C. Programs used: Data collection and evaluation with software STARe.

[2] = Stability experiments: ageing (humidity chamber)
[3] = Stability experiments: ageing (ambient conditions); settings: for Time stable at ambient conditions: monohydrate
Dynamic vapor sorption = assay: Dynamic vapor sorption
Description: The sodium (S)-{8-fluoro-2-[4-(3-methoxyphenyl)piperazine-1-yl]-3-[2-methoxy (trifluoromethyl)phenyl]-3,4-dihydroquinazoline-4-yl}acetate monohydrate obtained from examples 07 and 08 were analyzed using X-Ray Diffraction, NMR spectroscopy, Thermal gravimetric analysis, Differential scanning calorimetry and dynamic vapor sorption.

[4] = Stability experiments: heating (vacuum oven); settings: 2-3 mbar
[5] = Solubility in an aqueous medium; settings: in particular at physiological pH
[6] = Storage stability in an aqueous medium; settings: in particular at physiological pH

| Structure (SMILES) | Decomposition temperature (TGA) ([1]; TGA) | Stability, ageing (humidity chamber) ([2]; 25° C./60% RH, 24-72 hours) | Stability under ambient conditions (in words) [3] | Stability, ageing (ambient conditions) ([3]; 25° C., 30-40% RH, 24 hours) | Stability, ageing (ambient conditions) ([3]; within 24 hours) | Dynamic vapor sorption weight increase (Dynamic vapor sorption; from 10 to 80% RH) | Dynamic vapor sorption weight increase (Dynamic vapor sorption; from 80 to 90% RH) | Temperature up to which thermally stable (TGA) ([1]; as judged by TGA) | Stability, heating (vacuum oven) ([4]; 40° C., 15 h) | Stability, heating (vacuum oven) ([4]; 50° C., 60 h) | Stability, ageing (humidity chamber) ([2]; 25° C./60% RH, 72 hours) | Stability, ageing (humidity chamber) ([2]; 30° C./75% RH, 48 hours) | Ageing at higher temperatures and higher humidity ([2]; higher temperatures and higher humidity) | Solubility [5] | Storage stability [6] | Stability, ageing (ambient conditions, closed vial) ([3]; after 4 weeks) | Time stable at ambient conditions ([3]; listed as Form B) | Time stable at ambient conditions [3] |
| --- | --- | --- | --- | --- | --- | --- | --- | --- | --- | --- | --- | --- | --- | --- | --- | --- | --- | --- |
| COc1cccc(N2CCN(C3=Nc4c(F)cccc4[C@H](CC(=O)[O-])N3c3cc(C(F)(F)F)ccc3OC)CC2)c1.[Na+] [Form A, Sodium (S)-{8-fluoro-2-[4-(3-methoxyphenyl)piperazine-1-yl]-3-[2-methoxy-5-(trifluoromethyl)phenyl]-3,4-dihydroquinazoline-4-yl}acetate] | Decomposition at ca. 250 °C | 25° C./60% RH, 24-72 hours: Turns into | not stable under ambient conditions | 25° C., 30-40% RH, 24 hours: Turns into | Complete transition into Form B within in |  |  |  |  |  |  |  |  |  |  |  |  |  |
| COc1cccc(N2CCN(C3=Nc4c(F)cccc4[C@H](CC(=O)[O-])N3c3cc(C(F)(F)F)ccc3OC)CC2)c1.O.[Na+] [sodium letermovir monohydrate, sodium 2-[(4S)-8-fluoro-2-[4-(3-methoxyphenyl)piperazin-1-yl]-3-[2-methoxy-5-(trifluoromethyl)phenyl]-4H-quinazolin-4-yl]acetate monohydrate] |  |  |  |  |  | >9.5% weight increase from 10 to 80% RH | >8% weight increase from 80 to 90% RH | above 80 °C | 40° C., 2-3 mbar, 15 h: No changes, | 50° C., 2-3 mbar, 60 h: No changes | 25° C./60% RH, 72 hours: minor changes | 30° C./75% RH, 48 hours: amorphous | does not age | readily soluble | good storage stability | No significant changes after 4 weeks. | over 6 months | over 4 weeks |
